Test results published in PubChem BioAssay (NCI).
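Values below derive from 48-hour exposures of cells grown in 96-well plates, with endpoints linearly interpolated between the two concentrations bracketing the appropriate inhibition level. TGI denotes the concentration required for complete inhibition of growth.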

Key:
Assay in all cases: NCI anticancer screen, dose series, 48 h
786-0 renal = tested on: 786-0 renal
A498 renal = tested on: A498 renal
ACHN renal = tested on: ACHN renal
BT-549 breast = tested on: BT-549 breast
CAKI-1 renal = tested on: CAKI-1 renal
COLO 205 colon = tested on: COLO 205 colon
DU-145 prostate = tested on: DU-145 prostate
EKVX NSCLC = tested on: EKVX NSCLC
HCC-2998 colon = tested on: HCC-2998 colon
HCT-116 colon = tested on: HCT-116 colon
HCT-15 colon = tested on: HCT-15 colon
HL-60(TB) leukemia = tested on: HL-60(TB) leukemia
HOP-62 NSCLC = tested on: HOP-62 NSCLC
HS 578T breast = tested on: HS 578T breast
HT29 colon = tested on: HT29 colon
IGROV1 ovarian = tested on: IGROV1 ovarian
K-562 leukemia = tested on: K-562 leukemia
KM12 colon = tested on: KM12 colon
LOX IMVI melanoma = tested on: LOX IMVI melanoma
MALME-3M melanoma = tested on: MALME-3M melanoma
MCF7 breast = tested on: MCF7 breast
MDA-MB-231 breast = tested on: MDA-MB-231 breast
MDA-MB-435 = tested on: MDA-MB-435
MDA-N = tested on: MDA-N
MOLT-4 leukemia = tested on: MOLT-4 leukemia
NCI-H226 lung = tested on: NCI-H226 lung
NCI-H23 lung = tested on: NCI-H23 lung
NCI-H460 lung = tested on: NCI-H460 lung
NCI-H522 lung = tested on: NCI-H522 lung
NCI/ADR-RES ovarian = tested on: NCI/ADR-RES ovarian
OVCAR-3 ovarian = tested on: OVCAR-3 ovarian
OVCAR-4 ovarian = tested on: OVCAR-4 ovarian
OVCAR-5 ovarian = tested on: OVCAR-5 ovarian
OVCAR-8 ovarian = tested on: OVCAR-8 ovarian
PC-3 prostate = tested on: PC-3 prostate
RPMI-8226 leukemia = tested on: RPMI-8226 leukemia
RXF 393 renal = tested on: RXF 393 renal
SF-268 CNS = tested on: SF-268 CNS
SF-295 CNS = tested on: SF-295 CNS
SK-MEL-2 melanoma = tested on: SK-MEL-2 melanoma
SK-MEL-28 melanoma = tested on: SK-MEL-28 melanoma
SK-MEL-5 melanoma = tested on: SK-MEL-5 melanoma
SN12C renal = tested on: SN12C renal
SNB-19 CNS = tested on: SNB-19 CNS
SNB-75 CNS = tested on: SNB-75 CNS
SR leukemia = tested on: SR leukemia
SW-620 colon = tested on: SW-620 colon
T-47D breast = tested on: T-47D breast
TK-10 renal = tested on: TK-10 renal
U251 CNS = tested on: U251 CNS
UACC-257 melanoma = tested on: UACC-257 melanoma
UACC-62 melanoma = tested on: UACC-62 melanoma
UO-31 renal = tested on: UO-31 renal

O=C1/C(=C/c2cc3c(=O)c4ccccc4sc3s2)NC(=S)N1c1ccccc1
TGI (786-0 renal): > 100 µM | TGI (A498 renal): > 100 µM | TGI (ACHN renal): > 100 µM | TGI (BT-549 breast): > 100 µM | TGI (CAKI-1 renal): > 100 µM | TGI (COLO 205 colon): > 100 µM | TGI (DU-145 prostate): > 100 µM | TGI (EKVX NSCLC): > 100 µM | TGI (HCC-2998 colon): > 100 µM | TGI (HCT-116 colon): > 100 µM | TGI (HCT-15 colon): > 100 µM | TGI (HL-60(TB) leukemia): 66.9 µM | TGI (HOP-62 NSCLC): > 100 µM | TGI (HS 578T breast): > 100 µM | TGI (HT29 colon): > 100 µM | TGI (IGROV1 ovarian): > 100 µM | TGI (K-562 leukemia): > 100 µM | TGI (KM12 colon): > 100 µM | TGI (LOX IMVI melanoma): > 100 µM | TGI (MALME-3M melanoma): > 100 µM | TGI (MCF7 breast): > 100 µM | TGI (MDA-MB-231 breast): > 100 µM | TGI (MDA-MB-435): > 100 µM | TGI (MDA-N): > 100 µM | TGI (MOLT-4 leukemia): > 100 µM | TGI (NCI-H226 lung): > 100 µM | TGI (NCI-H23 lung): > 100 µM | TGI (NCI-H460 lung): > 100 µM | TGI (NCI-H522 lung): > 100 µM | TGI (NCI/ADR-RES ovarian): > 100 µM | TGI (OVCAR-3 ovarian): > 100 µM | TGI (OVCAR-4 ovarian): > 100 µM | TGI (OVCAR-5 ovarian): > 100 µM | TGI (OVCAR-8 ovarian): > 100 µM | TGI (PC-3 prostate): > 100 µM | TGI (RPMI-8226 leukemia): > 100 µM | TGI (RXF 393 renal): > 100 µM | TGI (SF-268 CNS): > 100 µM | TGI (SF-295 CNS): > 100 µM | TGI (SK-MEL-2 melanoma): > 100 µM | TGI (SK-MEL-28 melanoma): > 100 µM | TGI (SK-MEL-5 melanoma): > 100 µM | TGI (SN12C renal): > 100 µM | TGI (SNB-19 CNS): > 100 µM | TGI (SNB-75 CNS): > 100 µM | TGI (SR leukemia): 49.6 µM | TGI (SW-620 colon): > 100 µM | TGI (T-47D breast): > 100 µM | TGI (TK-10 renal): > 100 µM | TGI (U251 CNS): > 100 µM | TGI (UACC-257 melanoma): > 100 µM | TGI (UACC-62 melanoma): > 100 µM | TGI (UO-31 renal): > 100 µM

CNC(=S)Nc1sc2c(c1C#N)CCCC2
TGI (786-0 renal): > 75 µM | TGI (A498 renal): > 75 µM | TGI (ACHN renal): > 75 µM | TGI (BT-549 breast): > 75 µM | TGI (CAKI-1 renal): > 75 µM | TGI (COLO 205 colon): > 75 µM | TGI (DU-145 prostate): > 75 µM | TGI (EKVX NSCLC): > 75 µM | TGI (HCC-2998 colon): > 75 µM | TGI (HCT-116 colon): > 75 µM | TGI (HCT-15 colon): > 75 µM | TGI (HL-60(TB) leukemia): > 75 µM | TGI (HOP-62 NSCLC): > 75 µM | TGI (HS 578T breast): > 75 µM | TGI (HT29 colon): > 75 µM | TGI (IGROV1 ovarian): > 75 µM | TGI (K-562 leukemia): > 75 µM | TGI (KM12 colon): > 75 µM | TGI (LOX IMVI melanoma): > 75 µM | TGI (MALME-3M melanoma): > 75 µM | TGI (MCF7 breast): > 75 µM | TGI (MDA-MB-231 breast): > 75 µM | TGI (MDA-MB-435): > 75 µM | TGI (MDA-N): > 75 µM | TGI (MOLT-4 leukemia): > 75 µM | TGI (NCI-H226 lung): > 75 µM | TGI (NCI-H23 lung): > 75 µM | TGI (NCI-H460 lung): > 75 µM | TGI (NCI-H522 lung): > 75 µM | TGI (NCI/ADR-RES ovarian): > 75 µM | TGI (OVCAR-3 ovarian): > 75 µM | TGI (OVCAR-4 ovarian): > 75 µM | TGI (OVCAR-5 ovarian): > 75 µM | TGI (OVCAR-8 ovarian): > 75 µM | TGI (PC-3 prostate): > 75 µM | TGI (RPMI-8226 leukemia): > 75 µM | TGI (RXF 393 renal): > 75 µM | TGI (SF-268 CNS): > 75 µM | TGI (SF-295 CNS): > 75 µM | TGI (SK-MEL-2 melanoma): > 75 µM | TGI (SK-MEL-28 melanoma): > 75 µM | TGI (SK-MEL-5 melanoma): > 75 µM | TGI (SN12C renal): > 75 µM | TGI (SNB-19 CNS): > 75 µM | TGI (SNB-75 CNS): > 75 µM | TGI (SR leukemia): > 75 µM | TGI (SW-620 colon): > 75 µM | TGI (T-47D breast): > 75 µM | TGI (TK-10 renal): > 75 µM | TGI (U251 CNS): > 75 µM | TGI (UACC-257 melanoma): > 75 µM | TGI (UACC-62 melanoma): > 75 µM | TGI (UO-31 renal): > 75 µM
